{"source": "patent US6063776A", "about": "“Sitostanol formulation with emulsifier to reduce cholesterol absorption and method for preparing and use of same” (Washington University, priority 1999, dated 2000)", "key": {"cholesterol absorption": {"system": "cholesterol absorption", "conditions": "cited from earlier work"}, "[1]": {"test": "Solubility in artificial bile of sonicated, lyophilized sitostanol mixtures (Example 6)", "type": "physicochemical", "conditions": "compared with lecithin and lysolecithin / SSL", "experimental": "Solubility in artificial bile was determined by adding 8 mM sodium taurocholate 5 mM PC 0.15 M NaCl 15 mM sodium phosphate pH 7.4 (artificial bile), rotating for 30 min. at 37° and centrifuging at 17,000×g for 1 min. The pellet was washed once and the combined sups and pellet were counted separately."}, "serum cholesterol": {"system": "serum cholesterol", "conditions": "cited from earlier work"}, "[2]": {"test": "Solubility of sitostanol mixtures dried from chloroform in artificial bile (Example 1)", "type": "physicochemical", "conditions": "artificial bile (8 mM sodium taurocholate, 5 mM soy lecithin, pH 7.4), 37° C, 30 min; mixture dried from chloroform", "procedure": "An aliquot, containing 1.2 μMol of sitostanol, was transferred to an evacuation tube and the solvent was removed under reduced pressure (<50 mtorr). The experiment was initiated by adding 0.5 mL of artificial bile (8 mM sodium taurocholate containing 5 mM soy lecithin and 0.15 mM NaCl, pH 7.4) followed by rotation at 8 rev/min for 30 min at 37° C. The tube was then centrifuged for 1 minute at 17,000×g to precipitate any solid material, the supernatant was removed and added to scintillation fluid for measurement of radioactivity, and the percent of radioactivity in the artificial bile supernatant was calculated."}, "[3]": {"test": "Solubility in artificial bile with variable amounts of lecithin, repeated extraction (Example 3)", "type": "physicochemical", "conditions": "tenfold excess of lecithin", "experimental": "Sitostanol, tracer amount of [^3 H]sitostanol, and other compounds that are found in the gut or that are commonly used as food additives were mixed together in chloroform solution at a fixed mole ratio. An aliquot, containing 1.2 μMol of sitostanol, was transferred to an evacuation tube and the solvent was removed under reduced pressure (<50 mtorr). The experiment was initiated by adding 0.5 mL of artificial bile (8 mM sodium taurocholate containing 5 mM soy lecithin and […], pH 7.4) followed by rotation at 8 rev/min for 30 min at 37° C. The tube was then centrifuged for 1 minute at 17,000×g to precipitate any solid material, the supernatant was removed and added to scintillation fluid for measurement of radioactivity, and the percent of radioactivity in the artificial bile supernatant was calculated. Table I below summarizes the solubility of sitostanol mixtures in the presence of artificial bile salt.\nThe effectiveness of variable amounts of lecithin to solubilize sitostanol was studied as in Example #1, except that after rotation at 37° for 30 min residual sedimenting sitostanol was re-extracted twice by vortexing with 0.5 ml additional artificial bile and recentrifuging. The following results were obtained:\nWhen [^3 H]phosphatidylcholine was added as a tracer instead of [^3 H]sitostanol, the amount of lecithin solubilized was 93.3%. […]"}, "[4]": {"system": "hypocholesterolemic activity", "conditions": "rat, in vivo; cited from earlier work"}, "[5]": {"conditions": "in vivo; cited from earlier work"}}, "note": "Like-named read-outs stand apart in the source and are kept apart here.", "data": [{"molecule": "neomycin", "values": [{"measurement": "effect on cholesterol absorption", "setting": "cholesterol absorption; given chronically (cholestyramine) or orally (neomycin)", "value": "reduces cholesterol absorption effectively"}]}, {"molecule": "CCCCCCCCCCCCCCCCCC(=O)OC(C)C(=O)OC(C)C(=O)[O-].[Na+]", "note": "(centres unmarked) [SSL, Sodium stearoyl-2-lactylate]", "values": [{"measurement": "effectiveness in solubilizing sitostanol", "setting": "[1]", "value": "as effective as lecithin and lysolecithin"}]}, {"molecule": "CC[C@H](CC[C@@H](C)[C@H]1CC[C@H]2[C@@H]3CC=C4C[C@@H](O)CC[C@]4(C)[C@H]3CC[C@]12C)C(C)C", "note": "[sitosterol]", "values": [{"measurement": "decrease of serum cholesterol levels", "setting": "serum cholesterol; 3-9 g/day powdered sitosterol", "value": 12, "unit": "%"}, {"measurement": "reduction of serum cholesterol", "setting": "serum cholesterol; 5-18 g sitosterol/day", "value": "16-20%"}]}, {"molecule": "sitostanol ester", "values": [{"measurement": "less effective at reducing cholesterol absorption", "setting": "cholesterol absorption; ester dissolved in dietary fat compared to the unesterified sterol, humans", "value": 21, "unit": "%"}]}, {"molecule": "CC[C@H](CC[C@@H](C)[C@H]1CC[C@H]2[C@@H]3CC[C@H]4C[C@@H](O)CC[C@]4(C)[C@H]3CC[C@]12C)C(C)C", "note": "[Sitostanol, sitostanol]", "values": [{"measurement": "Soluble Sterol", "setting": "[2]", "value": 2.3, "unit": "%"}, {"measurement": "sitostanol remaining insoluble", "setting": "[3]", "value": 32, "unit": "%"}, {"measurement": "reduction of serum cholesterol", "setting": "serum cholesterol; 1.5 g/day, severe hypercholesterolemia", "value": 15, "unit": "%"}, {"measurement": "effect in moderate hypercholesterolemia", "setting": "serum cholesterol; 3 g/day", "value": "no effect"}, {"measurement": "potency relative to other phytosterols", "setting": "[4]", "value": "more potent than other phytosterols"}, {"measurement": "absorption", "setting": "[5]", "value": "non-absorbable"}]}]}
